Data set [1] deals with LitPpy, chimeric luciferase of LitWT residues 1-439 and PpyWT residues 440-550. Description: Steady-state kinetic constants, bioluminescence activity. In kind it is biochemical, Luciola italica / Photinus pyralis. The conditions noted are these: pH 7.8. How it is done: (§1) Reactions were initiated by injection of solutions of the substrate being maintained at saturating concentration. Kinetic constants were determined using a nonlinear least squares method of the Enzyme Kinetics Pro software (SynTex), which fits data from the Michalis-Menten equation to a rectangular hyperbola. The corresponding kcat values were obtained by dividing the Vmax values by the amount (μmol) of each luciferase in the assay mixtures.

For data set [2], the system named is PpyLit (chimeric luciferase, SEQ ID NO: 8) variant S284T/F465R. The description is as above. The settings on record: pH 7.8. Format: biochemical, Photinus pyralis / Luciola italica. On the procedure:
as §1

The subject of data set [3] is PpyLit (chimeric luciferase, SEQ ID NO: 8) variant S284T/I351V/E354K. The data set is described as above. The settings on record: pH 7.8. Format: biochemical, Photinus pyralis / Luciola italica. How it is done: as §1
Data set [4] relates to PpyLit (chimeric luciferase, SEQ ID NO: 8) variant S284T. Described as above. In kind it is biochemical, Photinus pyralis / Luciola italica. The settings on record: pH 7.8. On the procedure: as §1
The subject of data set [5] is PpyLit (chimeric luciferase, SEQ ID NO: 8) variant I351V/E354K/F465R. The data set is described as above. In kind it is biochemical, Photinus pyralis / Luciola italica. The settings on record: pH 7.8. On the procedure:
as §1

In data set [6] the test system is Ppy RE-TSLit, chimeric luciferase of Ppy RE-TS N-domain and LitWT C-domain. The description is as above. The settings on record: pH 7.8. Format: biochemical, Photinus pyralis / Luciola italica. On the procedure:
as §1

The subject of data set [7] is PpyLit (chimeric luciferase, SEQ ID NO: 8) variant F465R. Described as above. The conditions noted are these: pH 7.8. In kind it is biochemical, Photinus pyralis / Luciola italica. How it is done:
as §1

For data set [8], the system named is PpyLit (chimeric luciferase, SEQ ID NO: 8) variant I232A/E354K. Described as above. The conditions noted are these: pH 7.8. In kind it is biochemical, Photinus pyralis / Luciola italica. On the procedure: as §1
The test system of data set [9] is Ppy GR-TSLit, chimeric luciferase of Ppy GR-TS N-domain and LitWT C-domain. The description is as above. In kind it is biochemical, Photinus pyralis / Luciola italica. The conditions noted are these: pH 7.8. On the procedure: as §1
For data set [10], the system named is PpyLit, chimeric luciferase of PpyWT residues 1-439 and LitWT residues 440-550, SEQ ID NO: 8. The data set is described as above. Format: biochemical, Photinus pyralis / Luciola italica. The settings on record: pH 7.8. How it is done: as §1
Data set [11] deals with PpyLit (chimeric luciferase, SEQ ID NO: 8) variant I351V/E354K. The data set is described as above. Format: biochemical, Photinus pyralis / Luciola italica. The conditions noted are these: pH 7.8. How it is done: as §1
Data set [12] deals with PpyLit (chimeric luciferase, SEQ ID NO: 8) variant I232A/I351V/E354K. The description is as above. In kind it is biochemical, Photinus pyralis / Luciola italica. The settings on record: pH 7.8. How it is done:
as §1

Data set [13] has as its target Photinus pyralis luciferase, recombinant wild type (PpyWT), SEQ ID NO: 4, with N-terminal peptide GPLGS (Photinus pyralis, UniProt P08659). The data set is described as above. The settings on record: pH 7.8; Vmax from LH2 Km measurement. Format: biochemical.
Data set [14] relates to PpyLit, chimeric luciferase of PpyWT residues 1-439 and LitWT residues 440-550, SEQ ID NO: 8. Description: Rate of oxidative half-reaction with synthetic LH2-AMP. The settings on record: faster than PpyWT; LH2-AMP as substrate, pH 7.8. In kind it is biochemical, Photinus pyralis / Luciola italica. How it is done:
The estimated rates of the oxidative half-reactions were based on bioluminescence activity assays using synthetic LH2-AMP as the substrate. Assays (0.510 mL) in 50 mM glycylglycine buffer, pH 7.8, contained 0.1 mL aliquots of LH2-AMP solution (final concentration 1.5-35 μM) in 10 mM sodium acetate, pH 4.5. Immediately, light reactions were initiated by injections of 10 μL of luciferase enzymes (0.4-1 μg in CBA). Kinetic constants were determined using a nonlinear least squares method of the Enzyme Kinetics Pro software (SynTex), which fits data from the Michalis-Menten equation to a rectangular hyperbola. The corresponding kcat values were obtained by dividing the Vmax values by the final amounts (μmol) of each luciferase in the assay mixtures.

Data set [15] shares this test system. The experiment in a line: Relative rate of adenylate formation (L-AMP formation from dehydroluciferin), fluorescence-based. Format: biochemical, Photinus pyralis / Luciola italica. The conditions noted are these: faster than PpyWT, pH 7.4. How it is done:
Using an excitation wavelength of 350 nm, the luciferase-catalyzed formation of L-AMP from dehydroluciferin (L), initiated by the addition of Mg-ATP, was assessed by following the decrease in the intensity of the 440 nm fluorescence of the initial enzyme-L complex. The change in fluorescence was used to estimate the rates of L-AMP formation catalyzed by the luciferases. Assays (0.4 mL) in 50 mM Tris buffer, pH 7.4 contained 2.8 μM enzyme and 0.55 μM L. The initial fluorescence at 440 nm was recorded and then the decrease was monitored following the rapid injection of 50 μL solutions of varying concentrations of Mg-ATP in the same buffer. The rates of decrease (slopes) were calculated and used to determine the initial velocities for each Mg-ATP concentration. The data were fitted using a nonlinear least squares method of the Enzyme Kinetics Pro software (SynTex), which fits data from the Michalis-Menten equation to a rectangular hyperbola, and the Vmax values were obtained. The corresponding kcat values were obtained by dividing the Vmax values (μmol/s) by the final amounts (μmol) of each luciferase in the assay mixtures.

Substrate in data set [16]: Nc1ncnc2c1ncn2[C@@H]1O[C@H](COP(=O)(O)OP(=O)(O)OP(=O)(O)O)[C@@H](O)[C@H]1O
The experiment in a line: purified protein, by the assay type. The settings on record: other: pH 7.8, LH2 saturating, 37.0 °C.

Substrate in data set [17]: O=C(O)[C@H]1CSC(c2nc3ccc(O)cc3s2)=N1
Description: purified protein, by the assay type. The conditions noted are these: other: pH 7.8, Mg-ATP saturating, 37.0 °C.

Setting [18] is: read-out: Km LH2, Mg-ATP saturating.

Photinus pyralis luciferase, recombinant wild type (PpyWT), SEQ ID NO: 4, with N-terminal peptide GPLGS, sequence (P08659 whole entry, the tested form may be a part): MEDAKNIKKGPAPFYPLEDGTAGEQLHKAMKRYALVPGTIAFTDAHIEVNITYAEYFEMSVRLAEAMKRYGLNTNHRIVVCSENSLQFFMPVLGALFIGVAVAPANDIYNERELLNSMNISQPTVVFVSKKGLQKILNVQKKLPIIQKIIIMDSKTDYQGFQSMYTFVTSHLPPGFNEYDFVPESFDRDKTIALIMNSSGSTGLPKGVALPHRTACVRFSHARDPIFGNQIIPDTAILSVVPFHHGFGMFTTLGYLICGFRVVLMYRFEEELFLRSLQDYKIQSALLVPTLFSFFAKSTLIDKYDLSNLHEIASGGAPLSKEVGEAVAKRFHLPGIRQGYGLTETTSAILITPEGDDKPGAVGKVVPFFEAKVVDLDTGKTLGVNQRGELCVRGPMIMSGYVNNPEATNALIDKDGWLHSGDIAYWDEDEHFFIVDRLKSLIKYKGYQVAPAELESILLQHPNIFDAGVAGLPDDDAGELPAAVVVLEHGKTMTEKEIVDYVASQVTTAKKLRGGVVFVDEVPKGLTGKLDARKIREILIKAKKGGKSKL

Take `O=C(O)[C@H]1CSC(c2nc3ccc(O)cc3s2)=N1` [LH2, D-firefly luciferin]: the kcat turned out to be 0.033 ± 0.001 s⁻¹ in data set [1] (Vmax from LH2 Km measurement); 0.10 ± 0.01 s⁻¹ in data set [2] (Vmax from LH2 Km measurement); 0.13 ± 0.01 s⁻¹ in data set [3] (Vmax from LH2 Km measurement); 0.10 ± 0.01 s⁻¹ in [4] (Vmax from LH2 Km measurement); 0.29 ± 0.01 s⁻¹ in data set [5] (Vmax from LH2 Km measurement); 0.09 ± 0.003 s⁻¹ in [6] (Vmax from LH2 Km measurement). Further, the kcat came out at 0.34 ± 0.02 s⁻¹ in data set [7] (Vmax from LH2 Km measurement); 0.25 ± 0.01 s⁻¹ in data set [8] (Vmax from LH2 Km measurement); 0.079 ± 0.001 s⁻¹ in data set [9] (Vmax from LH2 Km measurement); 0.32 ± 0.02 s⁻¹ in [10] (Vmax from LH2 Km measurement); 0.30 ± 0.02 s⁻¹ in data set [11] (Vmax from LH2 Km measurement); 0.24 ± 0.01 s⁻¹ in [12] (Vmax from LH2 Km measurement). Further, in data set [13], the kcat was determined as 0.18 ± 0.01 s⁻¹. Moreover, the Km in data set [1] (setting [18]) turned out to be 54 ± 5 µM; in data set [2] (setting [18]) it was 22 ± 3 µM; in data set [3] (setting [18]), 49 ± 5 µM; in data set [4] (setting [18]), 15 ± 2 µM; in data set [5] (setting [18]), 83 ± 3 µM; in data set [6] (setting [18]) it was 51 ± 3 µM. For the same molecule, the Km in [7] (setting [18]) was 31 ± 3 µM; in [8] (setting [18]), 24 ± 3 µM; in data set [9] (setting [18]), 123 ± 9 µM; in data set [10] (setting [18]) it was 25 ± 2 µM; in [11] (setting [18]) it was 52 ± 5 µM; in data set [12] (setting [18]) it was 51 ± 5 µM.
As to `Nc1ncnc2c1ncn2[C@@H]1O[C@H](COP(=O)(O)OC(=O)[C@H]2CSC(c3nc4ccc(O)cc4s3)=N2)[C@@H](O)[C@H]1O` [LH2-AMP], the “rate of oxidative half reaction” value in [14] was ~1.35 fold.
For `O=C(O)c1csc(-c2nc3ccc(O)cc3s2)n1` [L, dehydroluciferin], the “rate of adenylate formation half reaction” value in data set [15] is on record as ~1.35 fold.

B1: LitWT, recombinant Luciola italica luciferase containing Lys547Gly/Met548Gly, SEQ ID NO: 6, with N-terminal peptide GPLGS (Luciola italica; K547G/M548G) (protein)
chain: METEREENVVYGPLPFYPIEEGSAGIQLHKYMQQYAKLGAIAFSNALTGVDISYQQYFDITCRLAEAMKNYGMKPEGHIALCSENCEEFFIPVLAGLYIGVTVAPTNEIYTLRELNHSLGIAQPTIVFSSRKGLPKVLEVQKTVTCIKTIVILDSKVNFGGYDCVETFIKKHVELGFPATSFVPIDVKDRKHHIALLMNSSGSTGLPKGVEITHEGTVTRFSHAKDPIYGNQVSPGTAILTVVPFHHGFGMFTTLGYFACGYRIVMLTKFDEELFLRTLQDYKCTSVILVPTLFAILNRSELLDKFDLSNLTEIASGGAPLAKEIGEAVARRFNLPGVRQGYGLTETTSAFIITPEGDDKPGASGKVVPLFKVKIIDLDTKKTLGVNRRGEICVKGPSLMLGYTNNPEATRETIDEEGWLHTGDIGYYDEDEHFFIVDRLKSLIKYKGYQVPPAELESVLLQHPNIFDAGVAGVPDSEAGELPGAVVVMEKGKTMTEKEIVDYVNSQVVNHKRLRGGVRFVDEVPKGLTGKIDAKVIREILKKPQAGG
Turning to B1, in data set [16], the Km was 180 ± 14 µM. Further, in data set [17], the Km was determined as 90 ± 9 µM and the turnover number (kcat) is 0.14 ± 0.01 s⁻¹.

By kcat is commonly meant the maximal rate divided by the concentration of active sites. In general, Km refers to the concentration of substrate that gives half-maximal velocity.

The record behind these values is patent US20150152395A1, “CHIMERIC LUCIFERASES” (Connecticut College, priority 2012, published 2015).
